Experimental data published in the supplement of paper PMC4862054.

Tests used:
Conditions in all cases: incubation time: 72 h
CAL-85-1 [1] = experiment: drug sensitivity score (DSS), CellTox Green (DSS (AUC-based score)); higher = stronger drug effect (viability inhibition or cytotoxicity); extreme values may be limits of the assay
Method in brief: (§1)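 In 384-well plates, compound was laid out at 5 concentrations in 10-fold steps over a 10,000-fold range specific to each compound, and breast cancer cell lines were seeded on top in 20 µl suspension for a 72 h incubation. CellTox Green fluorescence and then CellTiter-Glo luminescence were read, and each plate was normalised to 0.1 % DMSO and a positive kill control. The drug sensitivity score was calculated from the area under the fitted dose-response curve.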

CAL-51 [2] = experiment: as above
Method in brief: as §1

HCC1143 [3] = experiment: as above
Method in brief: as §1

MDA-MB-468 [4] = experiment: as above
Method in brief: as §1

DU-4475 [5] = experiment: as above
Method in brief: as §1

MDA-MB-231 [6] = experiment: as above
Method in brief: as §1

MFM-223 [7] = experiment: as above
Method in brief: as §1

MDA-MB-436 [8] = experiment: as above
Method in brief: as §1

Hs578T [9] = experiment: as above
Method in brief: as §1

CAL-148 [10] = experiment: as above
Method in brief: as §1

BT-549 [11] = experiment: as above
Method in brief: as §1

MDA-MB-453 [12] = experiment: as above
Method in brief: as §1

CAL-85-1 [13] = experiment: normalised viability (% of control), CellTiter-Blue; higher = more viable cells (about 100 = DMSO control)
Method in brief: (§2)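 Plates were quality-checked by Z'-factor and normalised to vehicle (100) and a positive kill control (0). The underlying assay incubated breast cancer cell lines for 72 h on 384-well plates with compound, then added 2.5 µl CellTiter-Blue for 2 h at 37 °C and read at 560/590 nm. The value is normalised viability at a single listed concentration of the series.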

CAL-51 [14] = experiment: as above
Method in brief: as §2

HCC1143 [15] = experiment: as above
Method in brief: as §2

MDA-MB-468 [16] = experiment: as above
Method in brief: as §2

DU-4475 [17] = experiment: as above
Method in brief: as §2

MDA-MB-231 [18] = experiment: as above
Method in brief: as §2

HCC1599 = experiment: as above
Method in brief: as §2

MFM-223 [19] = experiment: as above
Method in brief: as §2

SK-BR-3 = experiment: as above
Method in brief: as §2

MDA-MB-436 [20] = experiment: as above
Method in brief: as §2

Hs578T [21] = experiment: as above
Method in brief: as §2

CAL-148 [22] = experiment: as above
Method in brief: as §2

BT-474 = experiment: as above
Method in brief: as §2

CAL-120 = experiment: as above
Method in brief: as §2

HDQ-P1 = experiment: as above
Method in brief: as §2

BT-549 [23] = experiment: as above
Method in brief: as §2

MDA-MB-453 [24] = experiment: as above
Method in brief: as §2

HCC1937 = experiment: as above
Method in brief: as §2

Row | SMILES | drug sensitivity score (CAL-85-1 [1]) | drug sensitivity score (CAL-51 [2]) | drug sensitivity score (HCC1143 [3]) | drug sensitivity score (MDA-MB-468 [4]) | drug sensitivity score (DU-4475 [5]) | drug sensitivity score (MDA-MB-231 [6]) | drug sensitivity score (MFM-223 [7]) | drug sensitivity score (MDA-MB-436 [8]) | drug sensitivity score (Hs578T [9]) | drug sensitivity score (CAL-148 [10]) | drug sensitivity score (BT-549 [11]) | drug sensitivity score (MDA-MB-453 [12]) | normalised viability (CAL-85-1 [13]; 3 nM) [%] | normalised viability (CAL-51 [14]; 3 nM) [%] | normalised viability (HCC1143 [15]; 10 nM) [%] | normalised viability (MDA-MB-468 [16]; 10 nM) [%] | normalised viability (DU-4475 [17]; 3 nM) [%] | normalised viability (MDA-MB-231 [18]; 10 nM) [%] | normalised viability (HCC1599; 10 nM) [%] | normalised viability (MFM-223 [19]; 10 nM) [%] | other results
1 | C/C(=C\c1csc(C)n1)[C@@H]1C[C@@H]2O[C@]2(C)CCC[C@H](C)[C@H](O)[C@@H](C)C(=O)C(C)(C)[C@@H](O)CC(=O)O1 [Patupilone] | 14.4 | 21 | 0.908 | 25.1 | 0 | 9.94 | 3 | 10.2 | 7.9 | 8.8 | 0 | 0 | – | – | – | – | – | – | – | – | normalised viability (CAL-85-1 [13]; 0.3 nM): 95.2%; normalised viability (CAL-51 [14]; 0.3 nM): 106%; normalised viability (HCC1143 [15]; 1 nM): 91.6%; normalised viability (MDA-MB-468 [16]; 1 nM): 96%; normalised viability (DU-4475 [17]; 0.3 nM): 90.2%; normalised viability (MDA-MB-231 [18]; 1 nM): 59.6%; normalised viability (HCC1599; 1 nM): 108%; normalised viability (MFM-223 [19]; 1 nM): 105%; normalised viability (SK-BR-3; 1 nM): 112%; normalised viability (MDA-MB-436 [20]; 1 nM): 86.8%; normalised viability (Hs578T [21]; 1 nM): 102%; normalised viability (CAL-148 [22]; 0.3 nM): 96.3%; normalised viability (BT-474; 1 nM): 103%; normalised viability (CAL-120; 1 nM): 109%; normalised viability (HDQ-P1; 0.3 nM): 107%; normalised viability (BT-549 [23]; 1 nM): 106%; normalised viability (MDA-MB-453 [24]; 0.3 nM): 114%; normalised viability (HCC1937; 1 nM): 79.4%
2 | CCCCCCCCc1ccc(CCC(N)(CO)CO)cc1 [Fingolimod] | 7.94 | 1.3 | 0 | 6.79 | 0 | 6.51 | 0.724 | 2.64 | 1.46 | 0 | 1.17 | 1.86 | 92.2 | 119 | 80.8 | 106 | 103 | 94.8 | 88.3 | 92.5 | normalised viability (SK-BR-3; 10 nM): 106%; normalised viability (MDA-MB-436 [20]; 10 nM): 100%; normalised viability (Hs578T [21]; 10 nM): 98.1%; normalised viability (CAL-148 [22]; 3 nM): 85.7%; normalised viability (BT-474; 10 nM): 121%; normalised viability (CAL-120; 10 nM): 91%; normalised viability (HDQ-P1; 3 nM): 116%; normalised viability (BT-549 [23]; 10 nM): 94%; normalised viability (MDA-MB-453 [24]; 3 nM): 114%; normalised viability (HCC1937; 10 nM): 116%
3 | O=C(O)CCCc1ccc(N(CCCl)CCCl)cc1 [Chlorambucil] | 0 | 0 | 0 | 0 | 0 | 0 | 0 | 2.34 | 0 | 0 | 0 | 0 | 101 | 115 | 83.5 | 107 | 101 | 101 | 108 | 95.5 | normalised viability (SK-BR-3; 10 nM): 113%; normalised viability (MDA-MB-436 [20]; 10 nM): 89.7%; normalised viability (Hs578T [21]; 10 nM): 111%; normalised viability (CAL-148 [22]; 3 nM): 98%; normalised viability (BT-474; 10 nM): 120%; normalised viability (CAL-120; 10 nM): 104%; normalised viability (HDQ-P1; 3 nM): 114%; normalised viability (BT-549 [23]; 10 nM): 80.9%; normalised viability (MDA-MB-453 [24]; 3 nM): 131%; normalised viability (HCC1937; 10 nM): 51.5%
4 | Cn1cncc1[C@@](N)(c1ccc(Cl)cc1)c1ccc2c(c1)c(-c1cccc(Cl)c1)cc(=O)n2C [Tipifarnib] | 0.98 | 10.3 | 0 | 0 | 0 | 0 | 0 | 0 | 0 | 0 | 0 | 0 | 81.4 | 108 | 71.9 | 96.8 | 99.4 | 82.2 | 92.7 | 84.6 | normalised viability (SK-BR-3; 10 nM): 91%; normalised viability (MDA-MB-436 [20]; 10 nM): 94.1%; normalised viability (Hs578T [21]; 10 nM): 88.9%; normalised viability (CAL-148 [22]; 3 nM): 92.2%; normalised viability (BT-474; 10 nM): 109%; normalised viability (CAL-120; 10 nM): 77.6%; normalised viability (HDQ-P1; 3 nM): 74.6%; normalised viability (BT-549 [23]; 10 nM): 86.3%; normalised viability (MDA-MB-453 [24]; 3 nM): 102%; normalised viability (HCC1937; 10 nM): 95.6%
